Measurements taken from PubChem BioAssay (NCI).
“And” between values parts separate entries of the source, which are not always exact repeats. Equal entries are not always repeated.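 48-hour exposure; five concentrations; linearly interpolated endpoints. GI50 = concentration required for 50% inhibition of growth. At the TGI there is no net growth.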

Assays:
Test in all cases: NCI-60 cell line screen, 48 h
786-0 renal = system: 786-0 renal
A549 NSCLC = system: A549 NSCLC
ACHN renal = system: ACHN renal
DU-145 prostate = system: DU-145 prostate
HCT-15 colon = system: HCT-15 colon
HS 578T breast = system: HS 578T breast
MDA-MB-231 breast = system: MDA-MB-231 breast
SK-OV-3 ovarian = system: SK-OV-3 ovarian
SNB-19 CNS = system: SNB-19 CNS
SR leukemia = system: SR leukemia

Structure (SMILES)	GI50 (786-0 renal)	TGI (786-0 renal)	GI50 (A549 NSCLC)	TGI (A549 NSCLC)	GI50 (ACHN renal)	TGI (ACHN renal)	GI50 (DU-145 prostate)	TGI (DU-145 prostate)	GI50 (HCT-15 colon)	TGI (HCT-15 colon)	GI50 (HS 578T breast)	TGI (HS 578T breast)	GI50 (MDA-MB-231 breast)	TGI (MDA-MB-231 breast)	GI50 (SK-OV-3 ovarian)	TGI (SK-OV-3 ovarian)	GI50 (SNB-19 CNS)	TGI (SNB-19 CNS)	GI50 (SR leukemia)	TGI (SR leukemia)
CCS(=O)(=O)c1ccc(OC)c(Nc2ncc(-c3cccc(-c4ccccc4F)c3)o2)c1	20.3 µM	> 25 µM	> 25 µM	> 25 µM	13.1 µM	> 25 µM	> 25 µM	> 25 µM	16.8 µM	> 25 µM	3.63 µM	15.8 µM	14.1 µM	> 25 µM	5.1 µM	14.3 µM	> 17.2 µM	> 25 µM	> 25 µM	> 25 µM
COc1ccccc1/C=C1\CCC(CN(C)C)C1=O (stereo not given)	–	5.08 µM	–	40.6 µM	–	15.2 µM	–	47.1 µM	–	7.85 µM	–	> 45.8 µM	–	5.78 µM	–	33.7 µM	–	26.7 µM	–	13 µM
COc1cccc(C2=NN(C(C)=O)C(c3cc(OC)c(OC)c(OC)c3)C2)c1 (stereo not given)	2.63 µM	> 20.6 µM	6.15 µM	> 100 µM	16 µM	> 100 µM	2.87 µM	> 100 µM	1.42 µM	> 100 µM	1.36 µM	5.11 µM	8.82 µM	> 100 µM	3.04 µM	> 47.7 µM	3.18 µM	> 100 µM	0.437 µM	> 100 µM
NC(=O)c1cccc(N)c1	> 100 µM	> 100 µM	> 100 µM	> 100 µM	> 100 µM	> 100 µM	> 100 µM	> 100 µM	> 100 µM	> 100 µM	> 100 µM	> 100 µM	> 100 µM	> 100 µM	> 100 µM	> 100 µM	> 100 µM	> 100 µM	> 100 µM	> 100 µM
COc1cc2c3c(n(CCCN=[N+]=[N-])c(=O)c2cc1OC)-c1ccc(N)cc1C3=O	0.16 µM	0.431 µM	0.374 µM	2.34 µM	0.102 µM	1.02 µM	0.117 µM	1.42 µM	0.378 µM	2.46 µM	1.53 µM	> 24.9 µM	0.625 µM	2.18 µM	0.277 µM	0.716 µM	0.125 µM	–	0.0276 µM	0.498 µM
Cc1nc(NC(=O)COc2cccc(/C=C3\COc4ccccc4C3=O)c2)sc1C	1.73 µM	3.22 µM	3.7 µM	12.4 µM	1.85 µM	3.77 µM	2.1 µM	4.09 µM	2.04 µM	5.2 µM	2.72 µM	8.6 µM	2.63 µM	7.41 µM	8.97 µM	21.3 µM	3.38 µM	13.6 µM	0.872 µM	> 100 µM
O=C(/C=C\c1cccc([N+](=O)[O-])c1)c1ccccc1	4.95 µM	12.7 µM	21 µM	68.2 µM	1.9 µM	3.81 µM	2.35 µM	5.88 µM	2.16 µM	5.95 µM	5.97 µM	61 µM	9.72 µM	25.1 µM	15 µM	30.4 µM	6.81 µM	21 µM	2.17 µM	> 100 µM
S=C(Nc1ccc(-c2nc3ccccc3s2)cc1)Nc1ccccn1	24.7 µM	70.4 µM	27 µM	> 100 µM	26.3 µM	> 70.8 µM	28.5 µM	> 100 µM	27.4 µM	> 71.6 µM	21.5 µM	59.2 µM	16.6 µM	48.3 µM	59.7 µM	> 100 µM	36.1 µM	> 100 µM	26.6 µM	57.4 µM
C[C@H]1O[C@@H](O[C@H]2[C@@H](O)C[C@H](O[C@H]3[C@@H](O)C[C@H](O[C@H]4CC[C@]5(C)C6C[C@@H](O)[C@]7(C)[C@@H](C8=CC(=O)OC8)CC[C@]7(O)C6CC[C@@H]5C4)O[C@@H]3C)O[C@@H]2C)C[C@H](O)[C@@H]1O (stereo not given in full)	0.06 µM	0.16 µM	0.0163 µM	0.0581 µM	0.022 µM	0.115 µM	0.0329 µM	0.0968 µM	0.128 µM	0.366 µM	0.0311 µM	4.3 µM	0.265 µM	1.32 µM	0.0821 µM	0.164 µM	0.175 µM	0.678 µM	0.0552 µM	0.307 µM
CCNC(=O)Nc1ccc(-c2nc3c(c(N4CCOC[C@@H]4C)n2)CCN(C2COC2)C3)cc1	0.386 µM and 0.278 µM	29.1 µM and > 10 µM	0.354 µM and 0.384 µM	> 100 µM	0.285 µM and 0.395 µM	> 56.2 µM	0.562 µM and 0.435 µM	> 100 µM	0.638 µM and 0.45 µM	> 100 µM	0.155 µM and 0.146 µM	0.804 µM and 0.93 µM	0.392 µM and 0.267 µM	> 48.2 µM	0.148 µM and 0.131 µM	1.16 µM and 0.956 µM	0.303 µM and 0.45 µM	> 21.6 µM	0.439 µM and 0.416 µM	> 100 µM
CNC(=O)c1cc(Oc2ccc3nc(NC(=O)c4cc(C(F)(F)F)cc(C(F)(F)F)c4)sc3c2)ccn1	2.55 µM	8.07 µM	3.99 µM	14.6 µM	3.26 µM	11.8 µM	3.69 µM	15.9 µM	3.97 µM	25.1 µM	3.15 µM	13.3 µM	2.88 µM	6.63 µM	2.52 µM	7.98 µM	3.76 µM	22.8 µM	3.37 µM	15 µM
O=C1C(CN(Cc2ccccc2)Cc2ccccc2)CCCC1CN(Cc1ccccc1)Cc1ccccc1 (stereo not given)	16.8 µM and 55.1 µM	32.9 µM and > 100 µM	–	> 100 µM	15.9 µM and > 85.3 µM	25.7 µM and > 100 µM	–	> 100 µM	14.2 µM and > 100 µM	21.3 µM and > 100 µM	> 100 µM and 28.1 µM	> 100 µM	> 100 µM and 38.3 µM	> 100 µM	–	> 77 µM and 97.5 µM	–	> 100 µM	77.3 µM	> 100 µM
